This passage reports IC50 results from ChEMBL document CHEMBL1142962, “Antiproliferative prenylated stilbenes and flavonoids from Macaranga alnifolia from the Madagascar rainforest” (J Nat Prod, 2007).

This experiment deals with A2780 (human ovarian cancer). Nature of the experiment: Antiproliferative activity against drug-sensitive human A2780 cells.

As usually defined, the IC50 is the midpoint of a concentration-inhibition curve. High values mean weaker potency in that assay, low ones greater potency in that assay. In the case of `CC(C)=CCC/C(C)=C/Cc1c(O)cc2c(c1O)C(=O)[C@H](O)[C@@H](c1ccc(O)cc1)O2` [BONANNIOL A], the IC50 came to 23.5 µM.

Compound `CC(C)=CCC/C(C)=C/Cc1c(O)cc2c(c1O)C(=O)C[C@@H](c1ccc(O)cc1)O2` [BONANNIONE A] displayed an IC50 of 24.5 µM. To `CC(C)=CCC/C(C)=C/Cc1c(O)cc2c(c1O)C(=O)[C@H](O)[C@@H](c1ccc(O)c(O)c1)O2` [DIPLACOL] belongs 11.5 µM; to `CC(C)=CCC/C(C)=C/Cc1c(O)cc2c(c1O)C(=O)C[C@@H](c1ccc(O)c(O)c1)O2` [NYMPHAEOL A], 10.5 µM.
